# Tests used:
# Experiment in all cases: radiometric filter-binding kinase assay, Kinase HotSpot
# Details in all cases: compound 0.5 µM; ATP 10 µM
# AKT1 (human) = AKT1 (human) (UniProt P31749)
# MLTK (human) = MLTK (human) (UniProt Q9NYL2)
# ERBB4 (human) = ERBB4 (human) (UniProt Q15303)
# PLK2 (human) = PLK2 (human) (UniProt Q9NYY3)
# FLT1 (human) = FLT1 (human) (UniProt P17948)
# MAP3K14 (human) = MAP3K14 (human) (UniProt Q99558)
# PRKCG (human) = PRKCG (human) (UniProt P05129)
# PRKCA (human) = PRKCA (human) (UniProt P17252)
# RAF1 (human) = RAF1 (human) (UniProt P04049)
# DYRK3 (human) = DYRK3 (human) (UniProt O43781)
# IKBKE (human) = IKBKE (human) (UniProt Q14164)
# MAP3K7 TAB1 (human) = MAP3K7 TAB1 (human) (UniProt O43318+Q15750)
# INSR (human) = INSR (human) (UniProt P06213)
# STK11 (human) = STK11 (human) (UniProt Q15831)
# NEK11 (human) = NEK11 (human) (UniProt Q8NG66)
# PASK (human) = PASK (human) (UniProt Q96RG2)
# EPHA5 (human) = EPHA5 (human) (UniProt P54756)
# ADRBK2 (human) = ADRBK2 (human) (UniProt P35626)
# Sequence of ADRBK2 (human) (P35626 whole entry, looked up): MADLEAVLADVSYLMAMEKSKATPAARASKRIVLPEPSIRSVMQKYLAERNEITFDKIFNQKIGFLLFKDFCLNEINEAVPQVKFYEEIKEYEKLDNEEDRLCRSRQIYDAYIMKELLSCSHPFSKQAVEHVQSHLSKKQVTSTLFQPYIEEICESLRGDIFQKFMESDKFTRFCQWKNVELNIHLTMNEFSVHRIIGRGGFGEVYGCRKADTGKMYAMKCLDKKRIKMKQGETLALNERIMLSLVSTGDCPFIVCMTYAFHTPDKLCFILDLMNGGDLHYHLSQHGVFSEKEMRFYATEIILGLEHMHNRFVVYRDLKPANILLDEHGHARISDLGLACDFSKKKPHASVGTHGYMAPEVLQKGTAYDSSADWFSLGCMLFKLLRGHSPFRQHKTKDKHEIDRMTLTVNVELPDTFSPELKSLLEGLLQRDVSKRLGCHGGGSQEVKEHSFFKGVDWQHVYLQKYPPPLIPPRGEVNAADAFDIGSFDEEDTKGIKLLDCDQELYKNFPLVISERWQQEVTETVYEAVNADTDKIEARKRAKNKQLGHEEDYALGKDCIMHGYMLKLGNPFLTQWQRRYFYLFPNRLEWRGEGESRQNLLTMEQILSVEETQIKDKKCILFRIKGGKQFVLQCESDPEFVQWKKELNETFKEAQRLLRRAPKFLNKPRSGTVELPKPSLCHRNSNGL
# PAK3 (human) = PAK3 (human) (UniProt O75914)
# TSSK2 (human) = TSSK2 (human) (UniProt Q96PF2)
# CSNK1A1 (human) = CSNK1A1 (human) (UniProt P48729)
# PRKD3 (human) = PRKD3 (human) (UniProt O94806)
# MAP4K4 (human) = MAP4K4 (human) (UniProt O95819)
# MUSK (human) = MUSK (human) (UniProt O15146)
# MAP4K5 (human) = MAP4K5 (human) (UniProt Q9Y4K4)
# PDGFRB (human) = PDGFRB (human) (UniProt P09619)
# PKN1 (human) = PKN1 (human) (UniProt Q16512)
# Sequence of PKN1 (human) (Q16512 whole entry, looked up): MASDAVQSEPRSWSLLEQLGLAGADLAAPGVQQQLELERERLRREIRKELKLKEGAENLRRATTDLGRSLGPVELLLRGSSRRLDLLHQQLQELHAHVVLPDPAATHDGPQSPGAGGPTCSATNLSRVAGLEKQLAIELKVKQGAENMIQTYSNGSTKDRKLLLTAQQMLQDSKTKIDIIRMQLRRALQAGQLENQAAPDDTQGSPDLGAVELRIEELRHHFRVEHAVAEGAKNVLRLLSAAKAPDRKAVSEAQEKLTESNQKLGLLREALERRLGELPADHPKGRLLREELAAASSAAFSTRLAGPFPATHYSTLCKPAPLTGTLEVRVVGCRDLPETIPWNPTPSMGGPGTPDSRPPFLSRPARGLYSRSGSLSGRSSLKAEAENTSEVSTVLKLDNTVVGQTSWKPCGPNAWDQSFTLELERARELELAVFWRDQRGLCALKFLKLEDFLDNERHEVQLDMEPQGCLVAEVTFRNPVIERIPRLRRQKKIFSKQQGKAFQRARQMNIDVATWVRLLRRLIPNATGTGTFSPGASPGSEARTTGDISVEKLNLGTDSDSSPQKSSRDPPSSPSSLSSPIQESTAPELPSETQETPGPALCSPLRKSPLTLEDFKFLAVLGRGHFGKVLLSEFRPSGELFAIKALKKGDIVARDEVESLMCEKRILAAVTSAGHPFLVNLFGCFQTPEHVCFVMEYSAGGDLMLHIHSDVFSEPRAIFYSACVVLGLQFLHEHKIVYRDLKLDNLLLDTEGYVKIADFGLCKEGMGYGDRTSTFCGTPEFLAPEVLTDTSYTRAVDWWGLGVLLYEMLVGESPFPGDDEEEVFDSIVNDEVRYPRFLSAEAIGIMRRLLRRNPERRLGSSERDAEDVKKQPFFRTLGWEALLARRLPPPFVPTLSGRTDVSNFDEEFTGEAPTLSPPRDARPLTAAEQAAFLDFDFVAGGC
# GRK4 (human) = GRK4 (human) (UniProt P32298)
# IKBKB (human) = IKBKB (human) (UniProt O14920)
# EPHA8 (human) = EPHA8 (human) (UniProt P29322)
# PRKACA (human) = PRKACA (human) (UniProt P17612)
# CDK4 CCND1 (human) = CDK4 CCND1 (human) (UniProt P24385+P11802)
# KDR (human) = KDR (human) (UniProt P35968)
# Sequence of KDR (human) (P35968 whole entry, looked up): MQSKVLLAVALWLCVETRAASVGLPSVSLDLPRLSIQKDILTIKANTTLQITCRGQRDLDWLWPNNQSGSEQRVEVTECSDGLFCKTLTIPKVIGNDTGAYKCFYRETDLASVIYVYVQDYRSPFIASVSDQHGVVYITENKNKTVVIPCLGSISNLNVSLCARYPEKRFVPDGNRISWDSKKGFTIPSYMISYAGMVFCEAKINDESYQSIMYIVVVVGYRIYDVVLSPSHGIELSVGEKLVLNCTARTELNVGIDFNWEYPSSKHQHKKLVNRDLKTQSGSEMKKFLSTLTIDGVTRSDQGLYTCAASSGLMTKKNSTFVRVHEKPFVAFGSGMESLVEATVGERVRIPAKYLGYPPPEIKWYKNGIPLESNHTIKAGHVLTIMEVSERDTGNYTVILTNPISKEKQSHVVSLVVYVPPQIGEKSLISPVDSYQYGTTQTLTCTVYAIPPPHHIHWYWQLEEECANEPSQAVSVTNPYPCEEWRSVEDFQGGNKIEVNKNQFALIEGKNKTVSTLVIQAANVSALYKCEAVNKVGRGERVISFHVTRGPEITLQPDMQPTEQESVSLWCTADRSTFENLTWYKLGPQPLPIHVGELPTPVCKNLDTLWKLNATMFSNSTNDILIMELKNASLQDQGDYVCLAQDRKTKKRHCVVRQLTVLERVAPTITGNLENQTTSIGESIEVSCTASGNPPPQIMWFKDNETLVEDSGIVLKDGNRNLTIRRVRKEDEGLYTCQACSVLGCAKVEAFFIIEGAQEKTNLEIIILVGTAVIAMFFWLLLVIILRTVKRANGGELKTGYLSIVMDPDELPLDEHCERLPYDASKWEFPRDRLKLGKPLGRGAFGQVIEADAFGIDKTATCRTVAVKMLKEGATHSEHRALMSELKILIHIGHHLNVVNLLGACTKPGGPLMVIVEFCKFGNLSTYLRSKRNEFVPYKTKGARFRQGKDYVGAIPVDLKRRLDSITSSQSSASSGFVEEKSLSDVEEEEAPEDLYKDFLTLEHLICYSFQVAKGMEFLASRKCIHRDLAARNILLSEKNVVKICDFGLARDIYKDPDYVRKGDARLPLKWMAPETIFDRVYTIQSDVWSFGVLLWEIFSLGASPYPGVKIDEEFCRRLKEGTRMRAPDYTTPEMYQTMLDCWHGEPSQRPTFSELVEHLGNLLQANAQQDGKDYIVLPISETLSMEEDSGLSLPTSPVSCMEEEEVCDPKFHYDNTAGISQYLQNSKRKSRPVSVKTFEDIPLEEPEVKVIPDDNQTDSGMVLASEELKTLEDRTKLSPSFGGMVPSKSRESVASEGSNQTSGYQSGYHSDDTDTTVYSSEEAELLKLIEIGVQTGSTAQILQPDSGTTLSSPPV
# CSNK2A2 (human) = CSNK2A2 (human) (UniProt P19784)
# CLK3 (human) = CLK3 (human) (UniProt P49761)
# Sequence of CLK3 (human) (P49761 whole entry, looked up): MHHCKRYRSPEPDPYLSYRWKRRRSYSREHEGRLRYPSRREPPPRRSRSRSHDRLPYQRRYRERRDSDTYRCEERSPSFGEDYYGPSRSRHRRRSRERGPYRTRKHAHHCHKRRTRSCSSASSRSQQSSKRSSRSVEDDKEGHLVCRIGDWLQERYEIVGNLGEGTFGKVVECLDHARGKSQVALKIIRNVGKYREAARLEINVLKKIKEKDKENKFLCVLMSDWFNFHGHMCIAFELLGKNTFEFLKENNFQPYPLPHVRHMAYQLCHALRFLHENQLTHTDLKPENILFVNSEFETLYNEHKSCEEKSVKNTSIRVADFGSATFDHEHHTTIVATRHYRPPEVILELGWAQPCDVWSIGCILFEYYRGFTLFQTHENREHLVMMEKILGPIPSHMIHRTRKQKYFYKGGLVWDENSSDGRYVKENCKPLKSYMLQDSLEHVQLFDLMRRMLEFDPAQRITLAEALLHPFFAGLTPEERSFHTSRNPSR
# MYLK2 (human) = MYLK2 (human) (UniProt Q9H1R3)
# EPHB2 (human) = EPHB2 (human) (UniProt P29323)
# Sequence of EPHB2 (human) (P29323 whole entry, looked up): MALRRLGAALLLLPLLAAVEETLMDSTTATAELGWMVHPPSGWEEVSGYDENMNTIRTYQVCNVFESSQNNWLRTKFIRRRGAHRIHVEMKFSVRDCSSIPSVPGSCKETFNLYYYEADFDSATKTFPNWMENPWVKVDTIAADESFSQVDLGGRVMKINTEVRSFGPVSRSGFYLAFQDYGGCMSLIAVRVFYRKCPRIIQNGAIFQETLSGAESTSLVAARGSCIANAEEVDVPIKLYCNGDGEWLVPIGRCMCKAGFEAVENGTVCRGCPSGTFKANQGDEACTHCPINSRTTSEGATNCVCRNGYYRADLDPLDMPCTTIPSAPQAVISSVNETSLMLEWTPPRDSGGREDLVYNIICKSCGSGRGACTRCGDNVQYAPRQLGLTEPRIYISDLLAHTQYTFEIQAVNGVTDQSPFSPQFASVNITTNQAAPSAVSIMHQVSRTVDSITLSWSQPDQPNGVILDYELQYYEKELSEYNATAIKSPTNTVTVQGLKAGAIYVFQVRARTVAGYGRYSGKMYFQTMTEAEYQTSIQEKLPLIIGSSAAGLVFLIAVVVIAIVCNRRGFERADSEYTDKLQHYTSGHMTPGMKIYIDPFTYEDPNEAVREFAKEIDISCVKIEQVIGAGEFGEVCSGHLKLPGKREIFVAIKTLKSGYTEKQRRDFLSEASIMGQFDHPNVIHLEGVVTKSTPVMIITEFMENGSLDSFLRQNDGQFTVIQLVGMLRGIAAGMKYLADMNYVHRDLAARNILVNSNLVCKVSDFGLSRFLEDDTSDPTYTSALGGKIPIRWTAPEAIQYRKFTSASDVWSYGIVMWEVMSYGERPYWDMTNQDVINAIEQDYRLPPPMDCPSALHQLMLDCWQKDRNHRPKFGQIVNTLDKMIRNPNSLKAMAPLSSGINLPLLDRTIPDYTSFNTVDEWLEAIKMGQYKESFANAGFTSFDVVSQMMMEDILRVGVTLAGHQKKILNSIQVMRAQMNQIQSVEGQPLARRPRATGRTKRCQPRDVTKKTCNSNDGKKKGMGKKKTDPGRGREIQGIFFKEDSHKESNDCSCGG
# CSNK1E (human) = CSNK1E (human) (UniProt P49674)
# Sequence of CSNK1E (human) (P49674 whole entry, looked up): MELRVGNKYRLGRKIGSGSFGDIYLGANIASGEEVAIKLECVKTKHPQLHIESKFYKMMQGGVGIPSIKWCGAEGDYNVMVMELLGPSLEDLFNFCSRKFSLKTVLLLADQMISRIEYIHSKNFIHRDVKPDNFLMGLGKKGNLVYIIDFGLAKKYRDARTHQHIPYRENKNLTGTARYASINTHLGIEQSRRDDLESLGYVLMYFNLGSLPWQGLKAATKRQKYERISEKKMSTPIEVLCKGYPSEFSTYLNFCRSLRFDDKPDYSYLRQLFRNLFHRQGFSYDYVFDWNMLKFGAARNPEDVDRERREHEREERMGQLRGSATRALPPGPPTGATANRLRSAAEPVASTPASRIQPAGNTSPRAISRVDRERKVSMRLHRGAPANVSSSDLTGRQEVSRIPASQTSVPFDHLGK
# CAMKK2 (human) = CAMKK2 (human) (UniProt Q96RR4)
# MAPKAPK2 (human) = MAPKAPK2 (human) (UniProt P49137)
# RPS6KA5 KD2 (human) = RPS6KA5 KD2 (human) (UniProt O75582)
# RET (human) = RET (human) (UniProt P07949)
structure (smiles),measurement,setting,value
O=c1cc(N2CCOCC2)oc2c1ccc1ccccc12,residual activity,AKT1 (human),101%
same,residual activity,MLTK (human),98%
same,residual activity,ERBB4 (human),101%
same,residual activity,PLK2 (human),106%
same,residual activity,FLT1 (human),95.5%
same,residual activity,MAP3K14 (human),81.2%
same,residual activity,PRKCG (human),101%
same,residual activity,PRKCA (human),89.2%
same,residual activity,RAF1 (human),97.9%
same,residual activity,DYRK3 (human),96%
same,residual activity,IKBKE (human),101%
same,residual activity,MAP3K7 TAB1 (human),98.3%
same,residual activity,INSR (human),92.3%
same,residual activity,STK11 (human),104%
same,residual activity,NEK11 (human),99.1%
same,residual activity,PASK (human),94.9%
same,residual activity,EPHA5 (human),110%
same,residual activity,ADRBK2 (human),102%
same,residual activity,PAK3 (human),102%
same,residual activity,TSSK2 (human),100%
same,residual activity,CSNK1A1 (human),115%
same,residual activity,PRKD3 (human),98.8%
same,residual activity,MAP4K4 (human),89.3%
same,residual activity,MUSK (human),75.6%
same,residual activity,MAP4K5 (human),103%
same,residual activity,PDGFRB (human),111%
same,residual activity,PKN1 (human),106%
same,residual activity,GRK4 (human),104%
same,residual activity,IKBKB (human),105%
same,residual activity,EPHA8 (human),101%
same,residual activity,PRKACA (human),102%
same,residual activity,CDK4 CCND1 (human),95.6%
same,residual activity,KDR (human),86.8%
same,residual activity,CSNK2A2 (human),78.6%
same,residual activity,CLK3 (human),81.1%
same,residual activity,MYLK2 (human),97.7%
same,residual activity,EPHB2 (human),85%
same,residual activity,CSNK1E (human),92.5%
same,residual activity,CAMKK2 (human),104%
same,residual activity,MAPKAPK2 (human),98.3%
same,residual activity,RPS6KA5 KD2 (human),103%
same,residual activity,RET (human),99.8%
O=C1NC(=O)/C(=C/c2ccc3c(c2)OC(F)(F)O3)S1,residual activity,AKT1 (human),98.2%
same,residual activity,MLTK (human),97.6%
same,residual activity,ERBB4 (human),99.5%
same,residual activity,PLK2 (human),99.7%
same,residual activity,FLT1 (human),81.5%
same,residual activity,MAP3K14 (human),106%
same,residual activity,PRKCG (human),101%
same,residual activity,PRKCA (human),106%
same,residual activity,RAF1 (human),95.5%
same,residual activity,DYRK3 (human),100%
same,residual activity,IKBKE (human),101%
same,residual activity,MAP3K7 TAB1 (human),95.3%
same,residual activity,INSR (human),106%
same,residual activity,STK11 (human),96.9%
same,residual activity,NEK11 (human),111%
same,residual activity,PASK (human),78.2%
same,residual activity,EPHA5 (human),100%
same,residual activity,ADRBK2 (human),102%
same,residual activity,PAK3 (human),93.1%
same,residual activity,TSSK2 (human),101%
same,residual activity,CSNK1A1 (human),88.4%
same,residual activity,PRKD3 (human),91.4%
same,residual activity,MAP4K4 (human),95.3%
same,residual activity,MUSK (human),70.9%
same,residual activity,MAP4K5 (human),88.1%
same,residual activity,PDGFRB (human),97.4%
same,residual activity,PKN1 (human),98.5%
same,residual activity,GRK4 (human),102%
same,residual activity,IKBKB (human),96.1%
same,residual activity,EPHA8 (human),93.8%
same,residual activity,PRKACA (human),101%
same,residual activity,CDK4 CCND1 (human),97.1%
same,residual activity,KDR (human),94.6%
same,residual activity,CSNK2A2 (human),29.9%
same,residual activity,CLK3 (human),96.8%
same,residual activity,MYLK2 (human),96.6%
same,residual activity,EPHB2 (human),95.8%
same,residual activity,CSNK1E (human),96.9%
same,residual activity,CAMKK2 (human),82.9%
same,residual activity,MAPKAPK2 (human),94.4%
same,residual activity,RPS6KA5 KD2 (human),91.1%
same,residual activity,RET (human),102%
